Experimental data published in publication PMC11486972 (Hepatology (Baltimore, Md.), 2024).

Target: cathepsin S (CTSS) (Homo sapiens, UniProt P25774)
Assay: cell-free enzyme assay with recombinant CTSS
Assay type: biochemical

Sequence of cathepsin S (CTSS) (P25774 115-331): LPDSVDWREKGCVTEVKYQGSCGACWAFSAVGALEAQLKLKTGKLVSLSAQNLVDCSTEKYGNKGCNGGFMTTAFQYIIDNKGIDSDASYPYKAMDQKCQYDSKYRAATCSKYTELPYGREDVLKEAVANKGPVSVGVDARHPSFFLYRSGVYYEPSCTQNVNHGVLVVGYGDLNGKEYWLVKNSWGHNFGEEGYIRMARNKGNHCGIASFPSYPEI

EC50: 900 nM
SMILES: CN1CCN(C(=O)N[C@@H](Cc2ccccc2)C(=O)N[C@H](/C=C/S(=O)(=O)c2ccccc2)CCc2ccccc2)CC1 [K11777]
